# Assay results taken from publication PMC12207590, “Substrate Specificity of the Organic Cation Transporters MATE1 and MATE2K and Functional Overlap with OCT1 and OCT2” (Journal of Medicinal Chemistry, 2025).
# Like-named read-outs stand apart in the source and are kept apart here.
# What was measured:
# [1] = target: MATE2K (Homo sapiens, UniProt Q86VL8); assay: Uptake ratio in MATE2K-overexpressing HEK293 cells vs empty vector (2.5 μM, 1 min, HPLC-MS/MS); format: cell-based
# [2] = target: T1, MATE1 (Homo sapiens, UniProt Q96FL8); assay: Uptake ratio in MATE1-overexpressing HEK293 cells vs empty vector (2.5 μM, 1 min, HPLC-MS/MS); format: cell-based
# T1 sequence (Q96FL8 1-570): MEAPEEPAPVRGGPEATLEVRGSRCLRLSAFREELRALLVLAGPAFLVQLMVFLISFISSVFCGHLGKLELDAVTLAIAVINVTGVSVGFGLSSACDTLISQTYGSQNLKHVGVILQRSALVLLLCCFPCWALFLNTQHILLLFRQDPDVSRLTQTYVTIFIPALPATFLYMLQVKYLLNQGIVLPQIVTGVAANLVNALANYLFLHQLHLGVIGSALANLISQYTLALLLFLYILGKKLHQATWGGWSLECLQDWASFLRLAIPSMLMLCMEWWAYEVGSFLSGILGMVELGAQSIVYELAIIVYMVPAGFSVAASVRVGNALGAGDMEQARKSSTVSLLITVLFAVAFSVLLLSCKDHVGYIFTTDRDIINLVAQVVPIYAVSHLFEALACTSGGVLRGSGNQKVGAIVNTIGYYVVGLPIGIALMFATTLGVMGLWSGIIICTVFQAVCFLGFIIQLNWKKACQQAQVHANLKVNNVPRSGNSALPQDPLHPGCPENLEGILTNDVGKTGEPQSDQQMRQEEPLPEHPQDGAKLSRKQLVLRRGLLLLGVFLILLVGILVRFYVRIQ
# [3] = fold uptake over empty vector, 2.5 μM, 1 min
# [4] = mean ratio of uptake in MATE2K-overexpressing HEK293 cells vs empty vector, 2.5 μM, 1 min
# [5] = mean ratio of uptake in MATE1-overexpressing HEK293 cells vs empty vector, 2.5 μM, 1 min
# [6] = uptake ratio MATE2K-overexpressing vs empty-vector HEK293 cells, 2.5 μM, 1 min, mean
# [7] = uptake ratio MATE1-overexpressing vs empty-vector HEK293 cells, 2.5 μM, 1 min, mean
# Chain of MATE2K (Q86VL8 1-566 isoform Q86VL8-3): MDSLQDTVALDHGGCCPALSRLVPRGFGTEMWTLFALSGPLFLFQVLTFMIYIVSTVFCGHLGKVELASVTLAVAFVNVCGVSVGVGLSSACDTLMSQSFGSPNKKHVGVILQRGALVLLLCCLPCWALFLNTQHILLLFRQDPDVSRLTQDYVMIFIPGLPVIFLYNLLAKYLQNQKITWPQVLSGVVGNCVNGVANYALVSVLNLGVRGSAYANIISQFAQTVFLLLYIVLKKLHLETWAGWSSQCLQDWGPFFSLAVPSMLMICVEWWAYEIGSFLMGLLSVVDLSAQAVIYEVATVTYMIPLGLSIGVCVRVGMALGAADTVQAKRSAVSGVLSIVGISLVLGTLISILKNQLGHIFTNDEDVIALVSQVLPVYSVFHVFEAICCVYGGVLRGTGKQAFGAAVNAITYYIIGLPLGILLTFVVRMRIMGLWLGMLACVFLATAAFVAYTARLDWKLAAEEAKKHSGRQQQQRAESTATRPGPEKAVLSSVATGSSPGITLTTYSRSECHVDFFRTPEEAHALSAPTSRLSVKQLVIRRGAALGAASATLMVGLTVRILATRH
smiles,measurement,setting,value
NC12CC3CC(CC(C3)C1)C2 [Amantadine],MATE2 (uptake ratio),[1],1.48
same,MATE2K ratio,[1],1.48
same,MATE1 (uptake ratio),[2],1.42
same,MATE1 ratio,[2],1.42
CN1C(=O)CC[C@H]1c1cccnc1 [Cotinine],MATE2K ratio,[1]; [3],1.20
same,MATE1 ratio,[2]; [3],1.11
CC(C)(C)NCC(O)COc1cccc2c1CCC(=O)N2 (stereo not shown) [Carteolol],MATE2K ratio,[1]; [3],6.67
same,MATE2 (uptake ratio),[1]; [4],6.67
same,MATE1 ratio,[2]; [3],7.43
same,MATE1 (uptake ratio),[2]; [5],7.43
CN(CC(=O)O)C(=N)N [Creatine],MATE2K ratio,[1],1.07
same,MATE1 ratio,[2],1.01
"CNCC[C@@H](Oc1ccccc1C)c1ccccc1 [Atomoxetine (S), Atomoxetine]",MATE2K ratio,[1]; [3],1.03
same,MATE2 (uptake ratio),[1]; [4],1.03
same,MATE1 ratio,[2]; [3],1.16
same,MATE1 (uptake ratio),[2]; [5],1.16
CC(=O)Oc1c(C)cc(OCC(O)CNC(C)C)c(C)c1C (stereo not shown) [Metipranolol],MATE2K ratio,[1]; [3],1.17
same,MATE1 ratio,[2]; [3],1.21
O=c1cccc2n1C[C@@H]1CNC[C@H]2C1 [Cytisine],MATE2K ratio,[1],1.17
same,MATE1 ratio,[2],1.95
C[N+]1(C)CCCC(OC(=O)C(O)(c2ccccc2)c2ccccc2)C1.[Br-] (stereo not shown) [Mepenzolate],MATE2K ratio,[1]; [3],1.72
same,MATE1 ratio,[2]; [3],23.89
"CNC[C@H](O)c1cccc(O)c1 [Phenylephrine (L), Phenylephrine]",MATE2K ratio,[1]; [3],2.15
same,MATE1 ratio,[2]; [3],18.71
"CCC(Cc1ccc2c(c1)OCO2)NC (stereo not shown) [2-Methylamino-1-(3,4-methylendioxyphenyl)butan]",MATE2 (uptake ratio),[1],1.24
same,MATE2K ratio,[1],1.24
same,MATE1 (uptake ratio),[2],1.35
same,MATE1 ratio,[2],1.35
Nc1nc(=O)c2nc(CNc3ccc(C(=O)N[C@@H](CCC(=O)O)C(=O)O)cc3)cnc2[nH]1 [Folic acid],MATE2K ratio,[1]; [3],1.13
same,MATE1 ratio,[2]; [3],1.00
N[C@@H]1C[C@H]1c1ccccc1 (racemic) [Tranylcypromine],MATE2,[1],1.98
same,MATE1,[2],1.45
CNCCc1c[nH]c2ccc(O)cc12 [N-Methylserotonin],MATE2K ratio,[1],8.85
same,MATE1 ratio,[2],26.34
Nc1c(Br)cc(Br)cc1CN[C@H]1CC[C@H](O)CC1 [Ambroxol],MATE2K ratio,[1]; [3],1.32
same,MATE2 (uptake ratio),[1]; [4],1.32
same,MATE1 ratio,[2]; [3],1.00
same,MATE1 (uptake ratio),[2]; [5],1
CCN(CC)CCNC(=O)c1ccc(NS(C)(=O)=O)cc1 [Sematilide],MATE2K ratio,[1]; [3],6.42
same,MATE2,[1]; [6],6.42
same,MATE1 ratio,[2]; [3],19.10
same,MATE1,[2]; [7],19.1
CNCCCC1(c2ccc(F)cc2)OCc2cc(C#N)ccc21 (stereo not shown) [N-Desmethylcitalopram],MATE2K ratio,[1],1.09
same,MATE1 ratio,[2],1.09
CCCCCCCN [Heptylamine],MATE2K ratio,[1],1.60
same,MATE1 ratio,[2],1.18
Cc1cc(C(C)(C)C)c(O)c(C)c1CC1=NCCN1 [Oxymetazoline],MATE2K ratio,[1]; [3],2.29
same,MATE1 ratio,[2]; [3],5.22
CN[C@H]1CC[C@@H](c2ccc(Cl)c(Cl)c2)c2ccccc21 [Sertraline],MATE2K ratio,[1]; [3],1.10
same,MATE2,[1]; [6],1.1
same,MATE1 ratio,[2]; [3],1.28
same,MATE1,[2]; [7],1.28
Cc1cnc(Nc2ccc(OCCN3CCCC3)cc2)nc1Nc1cccc(S(=O)(=O)NC(C)(C)C)c1 [Fedratinib],MATE2K ratio,[1]; [3],0.87
same,MATE1 ratio,[2]; [3],1.16
"C#CCN[C@@H]1CCc2ccccc21 [Rasagiline (S), Rasagiline]",MATE2K ratio,[1]; [3],1.46
same,MATE2,[1]; [6],1.46
same,MATE1 ratio,[2]; [3],1.46
same,MATE1,[2]; [7],1.46
C[N+]1(C)CCC[C@H]1C(=O)[O-] [Stachydrine],MATE2K ratio,[1]; [3],1.31
same,MATE2,[1]; [6],1.31
same,MATE1 ratio,[2]; [3],0.83
same,MATE1,[2]; [7],0.83
"COc1ccccc1OCCNCC(O)COc1cccc2[nH]c3ccccc3c12 [Carvedilol (S), Carvedilol]",MATE2K ratio,[1]; [3],1.18
same,MATE2 (uptake ratio),[1]; [4],1.18
same,MATE1 ratio,[2]; [3],1.19
same,MATE1 (uptake ratio),[2]; [5],1.19
CNCC(=O)O [Sarcosine],MATE2K ratio,[1]; [3],1.01
same,MATE2,[1]; [6],1.01
same,MATE1 ratio,[2]; [3],0.76
same,MATE1,[2]; [7],0.76
CCCCNc1cc(C(=O)O)cc(S(N)(=O)=O)c1Oc1ccccc1 [Bumetanide],MATE2K ratio,[1]; [3],1.18
same,MATE2 (uptake ratio),[1]; [4],1.18
same,MATE1 ratio,[2]; [3],2.02
same,MATE1 (uptake ratio),[2]; [5],2.02
same,substrate of MATE1,[2]; organic anions tested,substrates of MATE1
"CCN1CCCC1CNC(=O)c1cc(S(=O)(=O)CC)c(N)cc1OC [Amisulpride (R), Amisulpride]",MATE2K ratio,[1]; [3],7.40
same,MATE2 (uptake ratio),[1]; [4],7.4
same,MATE1 ratio,[2]; [3],8.46
same,MATE1 (uptake ratio),[2]; [5],8.46
